Source: patent US10112944B2, “Heterocyclic compounds useful as inhibitors of TNF” (BRISTOL-MYERS SQUIBB COMPANY, priority 2015, dated 2018)
pIC50: −log10 of the molar value.

Biological target: TNFα (Homo sapiens (Human), UniProt P01375)
Test: TNF induced HEK-Blue assay
Format: cell-based
Conditions: HEK-Blue-CD40L cells, TNFα 0.5 ng/ml, NF-κB-driven secreted alkaline phosphatase reporter, 18 h
Description: TNF or CD40L-Induced HEK-Blue Assay
Test compounds serially diluted in DMSO were plated in an assay plate (Labcyte, Cat. #LP-0200) at final concentrations ranging from 0.004 μM to 25 μM. TNFα (final concentration 0.5 ng/ml) or CD40L (final concentration 30 ng/ml) in assay buffer [DMEM, 4.5 g/l glucose (Gibco, Cat. 21063-029), 10% FBS (Sigma, F4135), 1% Penicillin-Streptomycin (Gibco, Cat. 15140-122), 1% Anti-Anti (Gibco, Cat. 15240-112) and 2 mM L-glutamine (Gibco, Cat. 25030-081)] was then added to the assay plate. After a 30 minute pre-incubation at 37° C. and 5% CO2, HEK-Blue-CD40L cells (InvivoGen, Cat. Code hkb-cd40) containing a NF-κB-driven secreted alkaline phosphatase reporter gene were seeded into the assay plate at a density of 20,000 cells per well. This plate was then incubated for 18 h at 37° C. and 5% CO2. Secreted alkaline phosphatase expression was measured using QUANTI-Blue (InvivoGen, Cat. Code rep-qbl) according to manufacturer's specifications and the assay plate was read on a PerkinElmer Envision at 620 nm.
Inhibition data for the test compound over a range of concentrations was plotted as percentage inhibition of the test compound (100%=maximum inhibition). IC50 values were determined after correcting for background [(sample read−mean of low control)/(mean of high control−mean of low control)] where by the low control is DMSO without stimulation and high control is DMSO with stimulation. The IC50 is defined as the concentration of test compound which produces 50% inhibition and was quantified using the 4 parameter logistic equation to fit the data.

TNFα, sequence (P01375 77-233): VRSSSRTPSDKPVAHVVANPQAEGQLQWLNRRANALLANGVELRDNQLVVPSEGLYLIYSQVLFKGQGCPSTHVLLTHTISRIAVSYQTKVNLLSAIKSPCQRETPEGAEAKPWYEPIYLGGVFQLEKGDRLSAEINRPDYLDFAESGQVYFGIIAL

SMILES	pIC50
COc1ccc(-c2cn3c4c(nc3cc2C)CCCN4c2cc(C)ccc2C)cn1 [Example 1, 1-(2,5-Dimethylphenyl)-8-(6-methoxypyridin-3-yl)-7-methyl-1,2,3,4-tetrahydroimidazo [1,2-a:5,4-b′]dipyridine]	5.00 to 6.00
COc1ccc(-c2cn3c4c(nc3cc2C)CCCN4c2ccccc2OC(F)F)cn1 [Example 2, 1-(2-(Difluoromethoxy)phenyl)-8-(6-methoxypyridin-3-yl)-7-methyl-1,2,3,4-tetrahydroimidazo[1,2-a:5,4-b′]dipyridine]	> 6.00
Cc1ccc(C)c(N2CCCc3nc4cc(C)c(-c5cnn(C)c5)cn4c32)c1 [Example 3, 1-(2,5-Dimethylphenyl)-7-methyl-8-(1-methyl-1H-pyrazol-4-yl)-1,2,3,4-tetrahydroimidazo[1,2-a:5,4-b′]dipyridine]	> 6.00
Cc1cc2nc3c(n2cc1-c1cnn(C)c1)N(c1ccccc1OC(F)F)CCC3 [Example 4, 1-(2-(Difluoromethoxy)phenyl)-7-methyl-8-(1-methyl-1H-pyrazol-4-yl)-1,2,3,4-tetrahydroimidazo[1,2-a:5,4-b′]dipyridine]	5.00 to 6.00
COc1ccc(-c2ccc3nc4c(n3c2)N(c2cc(C)ccc2C)CCC4)cn1 [Example 5, 1-(2,5-Dimethylphenyl)-8-(6-methoxypyridin-3-yl)-1,2,3,4-tetrahydroimidazo [1,2-a:5,4-b′]dipyridine]	> 6.00
COc1ccc(-c2ccc3nc4c(n3c2)N(c2ccccc2OC(F)F)CCC4)cn1 [Example 6, 1-(2-(Difluoromethoxy)phenyl)-8-(6-methoxypyridin-3-yl)-1,2,3,4-tetrahydroimidazo[1,2-a:5,4-b′]dipyridine]	> 6.00
COc1ccc(-c2ccc3nc4c(n3c2)N(c2cc(C)ccc2OC)CCC4)cn1 [Example 7, 1-(2-Methoxy-5-methylphenyl)-8-(6-methoxypyridin-3-yl)-1,2,3,4-tetrahydroimidazo [1,2-a:5,4-b′]dipyridine]	> 6.00
COc1ccc(-c2ccc3nc4c(n3c2)N(c2nccc3ccccc23)CCC4)cn1 [Example 8, 1-(Isoquinolin-1-yl)-8-(6-methoxypyridin-3-yl)-1,2,3,4-tetrahydroimidazo [1,2-a:5,4-b′]dipyridine]	5.00 to 6.00
COc1ccc(-c2ccc3nc4c(n3c2)N(c2ccccc2C)CCC4)cn1 [Example 9, 8-(6-Methoxypyridin-3-yl)-1-(o-tolyl)-1,2,3,4-tetrahydroimidazo[1,2-a:5,4-b′]dipyridine]	> 6.00
COc1ccc(-c2ccc3nc4c(n3c2)N(c2ccccc2OC(F)(F)F)CCC4)cn1 [Example 10, 8-(6-Methoxypyridin-3-yl)-1-(2-(trifluoromethoxy)phenyl)-1,2,3,4-tetrahydroimidazo[1,2-a:5,4-b′]dipyridine]	> 6.00
COc1ccc(-c2ccc3nc4c(n3c2)N(c2cc(C(F)(F)F)ccc2C)CCC4)cn1 [Example 11, 8-(6-Methoxypyridin-3-yl)-1-(2-methyl-5-(trifluoromethyl)phenyl)-1,2,3,4-tetrahydroimidazo[1,2-a:5,4-b′]dipyridine]	5.00 to 6.00
Cc1ccc(C)c(N2CCCc3nc4ccc(-c5cnn(C)c5)cn4c32)c1 [Example 12, 1-(2,5-Dimethylphenyl)-8-(1-methyl-1H-pyrazol-4-yl)-1,2,3,4-tetrahydroimidazo [1,2-a:5,4-b′]dipyridine]	> 6.00
Cn1cc(-c2ccc3nc4c(n3c2)N(c2ccccc2OC(F)F)CCC4)cn1 [Example 13, 1-(2-(Difluoromethoxy)phenyl)-8-(1-methyl-1H-pyrazol-4-yl)-1,2,3,4-tetrahydroimidazo[1,2-a:5,4-b′]dipyridine]	> 6.00
Cc1ccc(C)c(N2CCCc3nc4ccc(-c5cnc(N6CCOCC6)nc5)cn4c32)c1 [Example 14, 4-(5-(1-(2,5-Dimethylphenyl)-1,2,3,4-tetrahydroimidazo[1,2-a:5,4-b′]dipyridin-8-yl)pyrimidin-2-yl)morpholine]	> 6.00
FC(F)Oc1ccccc1N1CCCc2nc3ccc(-c4cnc(N5CCOCC5)nc4)cn3c21 [Example 15, 4-(5-(1-(2-(Difluoromethoxy)phenyl)-1,2,3,4-tetrahydroimidazo[1,2-a:5,4-b′]dipyridin-8-yl)pyrimidin-2-yl)morpholine]	> 6.00
Cc1ccc(C)c(N2CCCc3nc4ccc(-c5ccc(-c6nnc(C)o6)cc5)cn4c32)c1 [Example 16, 2-(4-(1-(2,5-Dimethylphenyl)-1,2,3,4-tetrahydroimidazo[1,2-a:5,4-b′]dipyridin-8-yl)phenyl)-5-methyl-1,3,4-oxadiazole]	> 6.00
Cc1nnc(-c2ccc(-c3ccc4nc5c(n4c3)N(c3ccccc3OC(F)F)CCC5)cc2)o1 [Example 17, 2-(4-(1-(2-(Difluoromethoxy)phenyl)-1,2,3,4-tetrahydroimidazo[1,2-a:5,4-b′]dipyridin-8-yl)phenyl)-5-methyl-1,3,4-oxadiazole]	> 6.00
Cc1ccc(C)c(N2CCCc3nc4ccc(-c5cnc(C(C)(C)O)nc5)cn4c32)c1 [Example 18, 2-(5-(1-(2,5-Dimethylphenyl)-1,2,3,4-tetrahydroimidazo[1,2-a:5,4-b′]dipyridin-8-yl)pyrimidin-2-yl)propan-2-ol]	> 6.00
Cc1ccc(OC(F)F)c(N2CCCc3nc4ccc(-c5cnc(N6CCOCC6)nc5)cn4c32)c1 [Example 19, 4-(5-(1-(2-(Difluoromethoxy)-5-methylphenyl)-1,2,3,4-tetrahydroimidazo [1,2-a:5,4-b′]dipyridin-8-yl)pyrimidin-2-yl)morpholine]	> 6.00
COc1ccc(-c2ccc3nc4c(n3c2)N(c2cc(C)ccc2OC(F)F)CCC4)cn1 [Example 20, 1-(2-(Difluoromethoxy)-5-methylphenyl)-8-(6-methoxypyridin-3-yl)-1,2,3,4-tetrahydroimidazo[1,2-a:5,4-b′]dipyridine]	> 6.00
CC(C)(O)c1ncc(-c2cn3c4c(nc3cc2Cl)CCCN4c2ccccc2)cn1 [Example 21, 2-(5-(7-Chloro-1-phenyl-1,2,3,4-tetrahydroimidazo[1,2-a:5,4-b′]dipyridin-8-yl)pyrimidin-2-yl)propan-2-ol]	> 6.00
COc1ccc(-c2cn3c4c(nc3cc2Cl)CCCN4c2ccccc2OC(F)F)cn1 [Example 22, 7-Chloro-1-(2-(difluoromethoxy)phenyl)-8-(6-methoxypyridin-3-yl)-1,2,3,4-tetrahydroimidazo[1,2-a:5,4-b′]dipyridine]	5.00 to 6.00
COc1ccc(-c2cn3c4c(nc3cc2Cl)CCCN4c2cc(C)ccc2C)cn1 [Example 23, 7-Chloro-1-(2,5-dimethylphenyl)-8-(6-methoxypyridin-3-yl)-1,2,3,4-tetrahydroimidazo[1,2-a:5,4-b′]dipyridine]	5.00 to 6.00
COc1ccc(-c2ccc3nc4c(n3c2)N(c2cccc(C)c2C)CCC4)cn1 [Example 24, 1-(2,3-Dimethylphenyl)-8-(6-methoxypyridin-3-yl)-1,2,3,4-tetrahydroimidazo [1,2-a:5,4-b′]dipyridine]	5.00 to 6.00
COc1ccc(-c2ccc3nc4c(n3c2)N(c2cc(F)ccc2C)CCC4)cn1 [Example 25, 1-(5-Fluoro-2-methylphenyl)-8-(6-methoxypyridin-3-yl)-1,2,3,4-tetrahydroimidazo [1,2-a:5,4-b′]dipyridine]	> 6.00
COc1ccc(-c2ccc3nc4c(n3c2)N(c2ccc(F)cc2C)CCC4)cn1 [Example 26, 1-(4-Fluoro-2-methylphenyl)-8-(6-methoxypyridin-3-yl)-1,2,3,4-tetrahydroimidazo [1,2-a:5,4-b′]dipyridine]	> 6.00
